# Results published in patent US20080051449A1, “PREPARATION OF ATORVASTATIN CALCIUM FORM VI AND COMPOSITIONS THEREOF” (priority 2006, published 2008).
# Tests used:
# Format in all cases: physicochemical
# [1] = Particle size distribution by Malvern particle size analyzer; settings: dispersant 0.7% dioctyl sodium sulfosuccinate in n-hexane
# Description: A particle size distribution of D50 as used herein is defined as the distribution where 50 volume percent of the particles are smaller than that size given. A particle size distribution of D10 as used herein is defined as the distribution where 10 volume percent of the particles are smaller than that size given. A particle size distribution of D90 as used herein is defined as the distribution where 90 volume percent of the particles are smaller than that size given. The D50 value is considered to be a “mean particle size.” Particle size can be determined using commercially available instrumentation, such as that sold by Malvern Instruments Ltd. of Malvern, Worcestershire, United Kingdom and using a laser diffraction principle.
# The particle size distribution of atorvastatin calcium Form VI was determined using a Malvern® particle size analyzer, and 0.7% of dioctyl sodium sulfosuccinate in n-hexane was used as the dispersant.
# [2] = Stability study under various stress conditions in an open container
# Description: Stability Study of Atorvastatin Calcium Crystalline Form VI (Example 3) Subject to Various Stress Conditions in an Open Container
# [3] = Stability study at 40° C. and 75% relative humidity; settings: 40° C./75% RH
# Description: Stability packaging: The sample was packed in a clear polyethylene bag and flushed with nitrogen, then tied and placed in a black polyethylene bag along with silica gel and tied. Finally the black bag was placed in a triple laminated bag and sealed with a liner sealer.
# [4] = Stability study during storage at 25° C. and 60% relative humidity; settings: 25° C./60% RH
# Method: Stability Study of Atorvastatin Calcium Crystalline Form VI (Example 3) During Storage at 25° C. and 60% Relative Humidity.
# Stability packaging: same as Example 5.
# [5] = Accelerated Stability (40° C. and 75% relative humidity) 24 hours
# [6] = Compression (2000 kg/cm^2) for 1 hour
# [7] = UV Photostability λ = 254 nm, 24 hours
substance,measurement,setting,value
"[R—(R*,R*)]-2-(4-fluorophenyl)-β,δ-dihydroxy-5-(1-methylethyl)-3-phenyl-4[(phenyl amino) carbonyl]-IH-pyrrole-1-heptanoic acid, calcium salt (2:1) trihydrate [Atorvastatin calcium Form VI (Example 3)]",Particle Size D10,[1],1.32 μm
same,Particle Size D50,[1],5.22 μm
same,Particle Size D90,[1],24.54 μm
same,Total Impurities,[2]; [5],0.29 % w/w
same,Water by KF,[2]; [5],1.85 % w/w
same,Total Impurities,[2]; [6],0.32 % w/w
same,Water by KF,[2]; [6],1.68 % w/w
same,Total Impurities,[2]; Initial analysis,0.26 % w/w
same,Water by KF,[2]; Initial analysis,1.60 % w/w
same,Total Impurities,[2]; Thermal (90° C.) 24 hours,0.7 % w/w
same,Water by KF,[2]; Thermal (90° C.) 24 hours,1.04 % w/w
same,Total Impurities,[2]; [7],0.27 % w/w
same,Water by KF,[2]; [7],1.54 % w/w
same,Assay by HPLC,[3]; 1 month,99.2 % w/w
same,Moisture Content,[3]; 1 month,1.4 % w/w
same,Total Impurities by HPLC,[3]; 1 month,0.14 % w/w
same,Assay by HPLC,[3]; 3 months,99.2 % w/w
same,Moisture Content,[3]; 3 months,1.6 % w/w
same,Total Impurities by HPLC,[3]; 3 months,0.15 % w/w
same,Assay by HPLC,[3]; 6 months,99.2 % w/w
same,Moisture Content,[3]; 6 months,1.6 % w/w
same,Total Impurities by HPLC,[3]; 6 months,0.24 % w/w
same,Assay by HPLC,[3]; Initial,99.1 % w/w
same,Moisture Content,[3]; Initial,1.4 % w/w
same,Total Impurities by HPLC,[3]; Initial,0.18 % w/w
same,Assay by HPLC,[4]; 1 month,99.1 % w/w
same,Moisture Content,[4]; 1 month,1.5 % w/w
same,Total Impurities by HPLC,[4]; 1 month,0.16 % w/w
same,Assay by HPLC,[4]; 3 months,99.1 % w/w
same,Moisture Content,[4]; 3 months,1.7 % w/w
same,Total Impurities by HPLC,[4]; 3 months,0.14 % w/w
same,Assay by HPLC,[4]; 6 months,99.3 % w/w
same,Moisture Content,[4]; 6 months,1.5 % w/w
same,Total Impurities by HPLC,[4]; 6 months,0.23 % w/w
same,Assay by HPLC,[4]; Initial,99.1 % w/w
same,Moisture Content,[4]; Initial,1.4 % w/w
same,Total Impurities by HPLC,[4]; Initial,0.18 % w/w
